SMILES strings stand for the structures.

Consider three compounds from patent US6448450B1, “1-(3,5-dimethoxyphenyl)-2-(4-hydroxyphenyl)-ethylene for diabetes treatment” (Calyx Therapeutics, Inc., priority 1998, dated 2002).

For series [1], the system named is STZ induced diabetic rats. Put plainly: Effect on streptozotocin-induced diabetic rats, comparison with metformin. The following applies: 20 mg/kg vs metformin 30 mg/kg. Format: in vivo. As for the experimental part:
(§1) Streptozotocin (STZ) induced diabetic rats were made by injecting STZ (40 mg/kg/bw) intravenously. Following verification of blood glucose levels after 72 hours, diabetic rats showing fasting blood glucose levels above 200 mg/dl were divided into two groups. The diphenylethylene was administered to one group in a dose of 20 mg/kg/bw in propyleneglycol. The control group received only propyleneglycol. Soon after the administration of the compound, glucose tolerance testing was conducted by a glucose load of 2 g/kg/bw and blood glucose levels were monitored at zero, 30, 60, 120 and 180 minutes by milking the tail of the rats.
The same test was conducted on STZ induced diabetic rats comparing the diphenylethylene with the commercial product metformin. The diphenylethylene was administered at a dose of 20 mg/kg and metformin was administered at the dosage of 30 mg/kg.

For series [2], the system named is spontaneously diabetic (db/db) mice. Briefly: Blood glucose in spontaneously diabetic (db/db) mice. Format: in vivo. As to conditions: 20 mg/kg/bw/ip in propyleneglycol, within 24 hours. On the procedure:
Six spontaneously diabetic (db/db) mice were divided into two groups of three each. One test group receives the diphenylethylene (20 mg/kg/bw/ip) in propyleneglycol. The control group received an equal volume of propyleneglycol. Soon after the administration of the test materials, blood glucose levels were monitored at 1 hour (see FIG. 2A) and 24 hours (see FIG. 2B) after treatment. The diphenylethylene reduced the blood glucose level by over 50 percent within 24 hours, thus establishing its antihyperglycemic effect.

Series [3] deals with Streptozotocin (STZ) induced diabetic rats. Put plainly: Glucose tolerance test in STZ induced diabetic rats. Format: in vivo. As to conditions: 20 mg/kg/bw in propyleneglycol, glucose load 2 g/kg/bw, monitored 0-180 minutes, FIG. 1. As for the experimental part: as §1
Series [4] relates to STZ induced diabetic rats. Also on record: blood glucose BEFORE / blood glucose AFTER: unit not given here. As to conditions: Pter. 20 mg/kg, metformin 30 mg/kg, cited from earlier work; for blood glucose AFTER: after treatment; for blood glucose BEFORE: before treatment.
For series [5] the following is noted: cited from earlier work.

In the case of `COc1cc(/C=C/c2ccc(O)cc2)cc(OC)c1` [diphenylethylene, 1-(3,5-dimethoxyphenyl)-2-(4-hydroxyphenyl)ethylene], the “glucose levels compared with the commercial product (metformin)” value in series [1] is on record as “equivalent to those obtained by the commercial product”. The “reduction of blood glucose level” value in series [2] is “over 50%”. Also, the “blood glucose levels versus control group after glucose load” value in series [3] is on record as “stayed consistently below the blood glucose levels in the control group”. In series [4], the “% CHANGE of blood glucose” value is listed as −42%, the “blood glucose AFTER” value was 219 ± 48 and the “blood glucose BEFORE” value was 377 ± 37.
Consider `CN(C)C(=N)N=C(N)N` [Metformin, metformin, reference compound], for which, in series [4], the “% CHANGE of blood glucose” value was −48%, the “blood glucose AFTER” value is 188 ± 36 and the “blood glucose BEFORE” value is given as 358 ± 24.
For `COc1cc(/C=C/c2ccc(O)cc2)cc(OC)c1` [pterostilbene, 3,5-dimethoxy-4′-hydroxy-trans-stilbene], the water solubility result in series [5] is “water insoluble”.
